Test results: patent publication US9815796B2 (Merck Sharp & Dohme Corp., priority 2013, dated 2017)

What was measured:
[1] = biological target: Rhesus PDE2A3 (Macaca mulatta, UniProt B3VTJ2); assay: PDE2 fluorescence polarization (IMAP FP) inhibition assay, rhesus enzyme; format: biochemical, rhesus macaque; details: Rhesus PDE2, Lab A; read-out: Rhesus PDE2 Ki (nM) - Lab A
Summary of the method: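 Rhesus PDE2A3 came from lysate of transiently transfected AD293 cells, diluted to give 20% substrate conversion. Substrate was 50 nM FAM-cAMP with 1 uM cGMP activator in Tris pH 7.2/MgCl2 buffer, run 60 min at room temperature over 10-point 3-fold dilutions in 1% DMSO. Read-out was IMAP fluorescence polarization (mP) after ≥1 h binding.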

[2] = biological target: human PDE2A1 (Homo sapiens (Human), UniProt O00408); assay: IMAP FP PDE selectivity panel, human PDE2A1; format: biochemical; details: Human PDE2, Lab A; read-out: Human PDE2 Ki (nM) - Lab A
Summary of the method: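 GST-tagged human PDE2A1 expressed in insect cells, run at room temperature for 60 min with 50 nM FAM-cAMP containing 1000 nM cGMP, pH 7.2 Tris/MgCl2 buffer. IMAP fluorescence polarization read after binding step.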

Sequence of Rhesus PDE2A3 (B3VTJ2 1-941): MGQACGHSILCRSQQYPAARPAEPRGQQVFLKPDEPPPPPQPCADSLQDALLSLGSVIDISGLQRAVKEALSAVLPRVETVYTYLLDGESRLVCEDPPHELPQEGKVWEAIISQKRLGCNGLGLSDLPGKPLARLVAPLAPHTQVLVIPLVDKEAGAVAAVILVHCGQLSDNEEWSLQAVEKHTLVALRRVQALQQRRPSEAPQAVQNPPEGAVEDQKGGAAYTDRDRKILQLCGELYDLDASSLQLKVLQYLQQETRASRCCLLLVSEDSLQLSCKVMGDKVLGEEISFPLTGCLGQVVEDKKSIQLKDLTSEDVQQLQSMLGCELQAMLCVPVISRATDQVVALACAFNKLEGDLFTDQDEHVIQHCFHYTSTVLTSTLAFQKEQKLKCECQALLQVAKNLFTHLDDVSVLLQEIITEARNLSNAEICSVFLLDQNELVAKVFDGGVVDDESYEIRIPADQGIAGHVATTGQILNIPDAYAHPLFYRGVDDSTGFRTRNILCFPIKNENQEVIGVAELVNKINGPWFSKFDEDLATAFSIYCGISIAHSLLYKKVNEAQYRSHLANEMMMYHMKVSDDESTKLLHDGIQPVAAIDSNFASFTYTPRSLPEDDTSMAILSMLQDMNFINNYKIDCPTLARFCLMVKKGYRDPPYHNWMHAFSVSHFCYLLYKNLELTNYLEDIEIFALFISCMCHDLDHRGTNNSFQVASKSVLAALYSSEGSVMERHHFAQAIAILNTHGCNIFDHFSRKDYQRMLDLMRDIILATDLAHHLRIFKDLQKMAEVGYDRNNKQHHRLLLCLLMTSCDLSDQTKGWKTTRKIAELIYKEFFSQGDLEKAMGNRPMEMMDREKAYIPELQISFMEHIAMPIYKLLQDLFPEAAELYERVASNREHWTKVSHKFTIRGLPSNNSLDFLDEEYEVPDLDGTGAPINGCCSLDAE
Sequence of human PDE2A1 (O00408 other isoform, or with tags, fused parts or gaps): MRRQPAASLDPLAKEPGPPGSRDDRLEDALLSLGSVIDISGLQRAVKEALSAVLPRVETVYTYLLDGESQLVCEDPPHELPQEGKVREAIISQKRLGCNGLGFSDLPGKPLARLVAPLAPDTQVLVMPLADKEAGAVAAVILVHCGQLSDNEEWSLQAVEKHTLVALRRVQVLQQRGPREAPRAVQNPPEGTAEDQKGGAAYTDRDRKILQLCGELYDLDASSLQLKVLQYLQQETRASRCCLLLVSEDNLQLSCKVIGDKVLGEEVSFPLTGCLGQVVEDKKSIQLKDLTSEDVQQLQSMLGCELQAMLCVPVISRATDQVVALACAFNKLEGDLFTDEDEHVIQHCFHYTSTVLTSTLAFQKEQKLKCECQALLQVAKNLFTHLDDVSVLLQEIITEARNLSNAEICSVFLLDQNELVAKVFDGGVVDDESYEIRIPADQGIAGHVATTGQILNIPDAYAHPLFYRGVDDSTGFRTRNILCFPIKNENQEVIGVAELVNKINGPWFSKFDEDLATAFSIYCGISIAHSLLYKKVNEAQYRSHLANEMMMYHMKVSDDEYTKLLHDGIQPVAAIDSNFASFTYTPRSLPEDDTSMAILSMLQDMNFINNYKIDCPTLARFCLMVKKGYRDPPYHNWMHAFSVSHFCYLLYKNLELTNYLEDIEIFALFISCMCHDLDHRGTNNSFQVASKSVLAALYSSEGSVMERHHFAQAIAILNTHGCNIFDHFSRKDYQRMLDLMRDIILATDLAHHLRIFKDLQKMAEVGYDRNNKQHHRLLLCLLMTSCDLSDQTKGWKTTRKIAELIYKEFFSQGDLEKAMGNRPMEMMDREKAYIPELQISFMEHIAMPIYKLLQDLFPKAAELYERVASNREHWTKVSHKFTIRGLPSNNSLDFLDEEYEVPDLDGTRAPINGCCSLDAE

Row | Ki [1] [nM] | Ki [2] [nM] | SMILES
1 | 28 | 32 | O=C(NC1(c2ccc(SC(F)(F)F)cc2)CCC1)c1cc(=O)[nH]c(-c2ccccc2)n1 [Example 171, 6-oxo-2-phenyl-N-(1-{4-[(trifluoromethyl)sulfanyl]phenyl}cyclobutyl)-1,6-dihydropyrimidine-4-carboxamide]
2 | 2.7 | 1.9 | CC[C@@H](NC(=O)c1cc(=O)[nH]c(-c2ccccc2)n1)c1ccc(OC(F)(F)F)c(F)c1 [Example 172]
3 | 90 | 76 | Cc1cc(C(F)(F)F)ccc1C(C)NC(=O)c1cc(=O)[nH]c(-c2ccccc2)n1 (centres unmarked) [Example 173, N-{1-[2-methyl-4-(trifluoromethyl)phenyl]ethyl}-6-oxo-2-phenyl-1,6-dihydropyrimidine-4-carboxamide]
4 | 5.7 | 4.5 | O=C(N[C@@H](c1ccc(C(F)(F)F)c(F)c1)C1CC1)c1cc(=O)[nH]c(-c2ccccc2)n1 [Example 174, N-{(R)-cyclopropyl[3-fluoro-4-(trifluoromethyl)phenyl]methyl}-6-oxo-2-phenyl-1,6-dihydropyrimidine-4-carboxamide]
5 | 3.9 | 3.9 | O=C(N[C@@H](c1ccc(OC(F)(F)F)cc1)C1CC1)c1cc(=O)[nH]c(-c2ccccc2)n1 [Example 175, N-{(R)-cyclopropyl[4-(trifluoromethoxy)phenyl]methyl}-6-oxo-2-phenyl-1,6-dihydropyrimidine-4-carboxamide]
6 | 4.8 | 3.9 | O=C(N[C@@H](c1ccc(OC(F)(F)F)c(F)c1)C1CC1)c1cc(=O)[nH]c(-c2ccccc2)n1 [Example 176]
7 | 3.8 | 3.1 | O=C(N[C@@H](c1ccc(C(F)(F)F)cc1)C1CC1)c1cc(=O)[nH]c(-c2ccccc2)n1 [Example 177, N-{(R)-cyclopropyl[4-(trifluoromethyl)phenyl]methyl}-6-oxo-2-phenyl-1,6-dihydropyrimidine-4-carboxamide]
8 | 3.3 | 2.4 | O=C(N[C@@H](c1ccc(SC(F)(F)F)cc1)C1CC1)c1cc(=O)[nH]c(-c2ccccc2)n1 [Example 178, N-[(R)-cyclopropyl{4-[(trifluoromethyl)sulfanyl]phenyl}methyl]-6-oxo-2-phenyl-1,6-dihydropyrimidine-4-carboxamide]
9 | 4 | 2.2 | CC[C@@H](NC(=O)c1cc(=O)[nH]c(-c2ccccc2)n1)c1ccc(OC(F)(F)F)cc1 [Example 179, 6-oxo-2-phenyl-N-{(1R)-1-[4-(trifluoromethoxy)phenyl]propyl}-1,6-dihydropyrimidine-4-carboxamide]
10 | 141 | 118 | O=C(NCc1ccc(C2CC2)cc1)c1cc(=O)[nH]c(-c2ccccc2)n1 [Example 182, N-(4-cyclopropylbenzyl)-6-oxo-2-phenyl-1,6-dihydropyrimidine-4-carboxamide]
11 | 6.4 | 4.1 | C[C@@H](NC(=O)c1cc(=O)[nH]c(-c2ccccc2)n1)c1ccc(CC(F)(F)F)cc1 [Example 183, 6-oxo-2-phenyl-N-{(1R)-1-[4-(2,2,2-trifluoromethyl)phenyl]ethyl}-1,6-dihydropyrimidine-4-carboxamide]
12 | 20 | 20 | C[C@@H](NC(=O)c1cc(=O)[nH]c(-c2ccccc2)n1)c1cc(F)c(C(F)(F)F)c(F)c1 [Example 184, N-{(1R)-1-[3,5-difluoro-4-(trifluoromethyl)phenyl]ethyl}-6-oxo-2-phenyl-1,6-dihydropyrimidine-4-carboxamide]
13 | 13 | 9.7 | O=C(NC(CO)c1ccc(C(F)(F)F)cc1)c1cc(=O)[nH]c(-c2ccccc2)n1 (centres unmarked) [Example 185, N-{2-hydroxy-1-[4-(trifluoromethyl)phenyl]ethyl}-6-oxo-2-phenyl-1,6-dihydropyrimidine-4-carboxamide]
14 | 60 | 62 | CC(C)(NC(=O)c1cc(=O)[nH]c(-c2ccccc2)n1)c1ccc(SC(F)(F)F)cc1 [Example 186, N-(1-methyl-1-{4-[(trifluoromethyl)sulfanyl]phenyl}ethyl)-6-oxo-2-phenyl-1,6-dihydropyrimidine-4-carboxamide]
15 | 4.5 | 3.1 | COc1cc(OC(F)(F)F)ccc1C(C)NC(=O)c1cc(=O)[nH]c(-c2ccccc2)n1 (centres unmarked) [Example 187, N-{1-[2-methoxy-4-(trifluoromethoxy)phenyl]ethyl}-6-oxo-2-phenyl-1,6-dihydropyrimidine-4-carboxamide]
16 | 10 | 9.7 | Cc1cc([C@@H](C)NC(=O)c2cc(=O)[nH]c(-c3ccccc3)n2)ccc1C(F)(F)F [Example 189]
17 | 6.4 | 6.1 | C[C@@H](NC(=O)c1cc(=O)[nH]c(-c2ccccc2)n1)c1ccc(C(F)(F)F)c(Cl)c1 [Example 190, N-{(1R)-1-[3-chloro-4-(trifluoromethyl)phenyl]ethyl}-6-oxo-2-phenyl-1,6-dihydropyrimidine-4-carboxamide]

Row | Ki [1] [nM] | Ki [2] [nM] | SMILES
18 | 3.4 | 1.2 | CC(C)[C@@H](NC(=O)c1cc(=O)[nH]c(C2CC2)n1)c1ccc(OC(F)(F)F)cc1 [Example 191, 2-cyclopropyl-N-{(1R)-2-methyl-1-[4-(trifluoromethoxy)phenyl]propyl}-6-oxo-1,6-dihydropyrimidine-4-carboxamide]
19 | 151 | 81 | COc1ccc2cc(C(C)NC(=O)c3cc(=O)[nH]c(C4CC4)n3)ccc2c1 (centres unmarked) [Example 192, 2-cyclopropyl-N-[1-(6-methoxynaphthalen-2-yl)ethyl]-6-oxo-1,6-dihydropyrimidine-4-carboxamide]
20 | 3.9 | 1.3 | CC(C)[C@@H](NC(=O)c1cc(=O)[nH]c(C2CC2)n1)c1ccc(C(F)(F)F)cc1 [Example 193, 2-cyclopropyl-N-{(1R)-2-methyl-1-[4-(trifluoromethyl)phenyl]propyl}-6-oxo-1,6-dihydropyrimidine-4-carboxamide]
21 | 72 | 28 | CCc1ccc(C(C)NC(=O)c2cc(=O)[nH]c(C3CC3)n2)cc1 (centres unmarked) [Example 194, 2-cyclopropyl-N-[1-(4-ethylphenyl)ethyl]-6-oxo-1,6-dihydropyrimidine-4-carboxamide]
22 | 33 | 18 | CC(NC(=O)c1cc(=O)[nH]c(C2CC2)n1)c1ccc(C2CC2)cc1 (centres unmarked) [Example 195, 2-cyclopropyl-N-[1-(4-cyclopropylphenyl)ethyl]-6-oxo-1,6-dihydropyrimidine-4-carboxamide]
23 | 62 | 29 | O=C(NC1(c2ccc(C(F)(F)F)cc2)CCCC1)c1cc(=O)[nH]c(C2CC2)n1 [Example 197, 2-cyclopropyl-6-oxo-N-{1-[4-(trifluoromethyl)phenyl]cyclopentyl}-1,6-dihydropyrimidine-4-carboxamide]
24 | 96 | 59 | CC(C)(NC(=O)c1cc(=O)[nH]c(C2CC2)n1)c1ccc(OC(F)(F)F)c(F)c1 [Example 198]
25 | 12 | 7 | O=C(NC1(c2ccc(SC(F)(F)F)cc2)CC1)c1cc(=O)[nH]c(C2CC2)n1 [Example 199, 2-cyclopropyl-6-oxo-N-(1-{4-[(trifluoromethyl)sulfanyl]phenyl}cyclopropyl)-1,6-dihydropyrimidine-4-carboxamide]
26 | 16 | 9.2 | CC(C)(NC(=O)c1cc(=O)[nH]c(C2CC2)n1)c1ccc(C(F)(F)F)c(F)c1 [Example 200, 2-cyclopropyl-N-{1-[3-fluoro-4-(trifluoromethyl)phenyl]-1-methylethyl}-6-oxo-1,6-dihydropyrimidine-4-carboxamide]
27 | 4.4 | 2.8 | O=C(NC1(c2ccc(OC(F)(F)F)c(F)c2)CC1)c1cc(=O)[nH]c(C2CC2)n1 [Example 201]
28 | 7.3 | 3 | O=C(NC1(c2ccc(C(F)(F)F)c(F)c2)CC1)c1cc(=O)[nH]c(C2CC2)n1 [Example 202, 2-cyclopropyl-N-{1-[3-fluoro-4-(trifluoromethyl)phenyl]cyclopropyl}-6-oxo-1,6-dihydropyrimidine-4-carboxamide]
29 | 37 | 20 | O=C(NC1(c2ccc(SC(F)(F)F)cc2)CCC1)c1cc(=O)[nH]c(C2CC2)n1 [Example 204, 2-cyclopropyl-6-oxo-N-(1-{4-[(trifluoromethyl)sulfanyl]phenyl}cyclobutyl)-1,6-dihydropyrimidine-4-carboxamide]
30 | 5.8 | 2.6 | CC[C@@H](NC(=O)c1cc(=O)[nH]c(C2CC2)n1)c1ccc(OC(F)(F)F)c(F)c1 [Example 207]
31 | 6 | 3 | O=C(N[C@@H](c1ccc(C(F)(F)F)c(F)c1)C1CC1)c1cc(=O)[nH]c(C2CC2)n1 [Example 210, 2-cyclopropyl-N-{(R)-cyclopropyl[3-fluoro-4-(trifluoromethyl)phenyl]methyl}-6-oxo-1,6-dihydropyrimidine-4-carboxamide]
32 | 7.1 | 2.5 | O=C(N[C@@H](c1ccc(OC(F)(F)F)cc1)C1CC1)c1cc(=O)[nH]c(C2CC2)n1 [Example 211, 2-cyclopropyl-N-{(R)-cyclopropyl[4-(trifluoromethoxy)phenyl]methyl}-6-oxo-1,6-dihydropyrimidine-4-carboxamide]
33 | 6.1 | 2.6 | O=C(N[C@@H](c1ccc(OC(F)(F)F)c(F)c1)C1CC1)c1cc(=O)[nH]c(C2CC2)n1 [Example 212]
34 | 6.1 | 3.3 | O=C(N[C@@H](c1ccc(C(F)(F)F)cc1)C1CC1)c1cc(=O)[nH]c(C2CC2)n1 [Example 213, 2-cyclopropyl-N-{(R)-cyclopropyl[4-(trifluoromethyl)phenyl]methyl}-6-oxo-1,6-dihydropyrimidine-4-carboxamide]
